Assay results as given in US12077503B2, “Substituted cyclic amides and their use as herbicides” (FMC CORPORATION, priority 2015, dated 2024).

Experiments:
Type in all cases: in vivo
Kochia (Kochia scoparia) [1] = assay: Test A preemergence; conditions: Bassia scoparia, pre-emergence, 240 h; for pest or weed control at 125 g/ha: 125 g ai/ha, Preemergence, visual injury rating after approximately 10 d, read-out: Kochia plant response rating (0 to 100 scale, 0 is no effect, 100 is complete control); for pest or weed control at 500 g/ha: 500 g ai/ha, preemergence, visual injury rating about 10 d after treatment, 0 to 100 scale (0 no effect, 100 complete control), read-out: Kochia plant response rating
How it was run: (§1)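 Preemergence soil spray on seeded pots or post-emergence spray on 1–2 leaf plants, in loam–sand blend. Greenhouse ~10 d. Visual rating 0–100 against untreated plants.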

[2] = tested on: barnyardgrass (Echinochloa crus-galli); assay: Test A preemergence; conditions: Echinochloa crus-galli, pre-emergence, 240 h; for pest or weed control at 125 g/ha: 125 g ai/ha, Preemergence, visual injury rating after approximately 10 d, read-out: Barnyardgrass plant response rating (0 to 100 scale, 0 is no effect, 100 is complete control); for pest or weed control at 500 g/ha: 500 g ai/ha, preemergence, visual injury rating about 10 d after treatment, 0 to 100 scale (0 no effect, 100 complete control), read-out: Barnyardgrass plant response rating
How it was run: as §1

[3] = tested on: giant foxtail (Setaria faberii); assay: Test A preemergence; conditions: Setaria faberi, pre-emergence, 240 h; for pest or weed control at 125 g/ha: 125 g ai/ha, Preemergence, visual injury rating after approximately 10 d, read-out: Foxtail, Giant plant response rating (0 to 100 scale, 0 is no effect, 100 is complete control); for pest or weed control at 500 g/ha: 500 g ai/ha, preemergence, visual injury rating about 10 d after treatment, 0 to 100 scale (0 no effect, 100 complete control), read-out: Foxtail, Giant plant response rating
How it was run: as §1

[4] = tested on: pigweed (Amaranthus retroflexus); assay: Test A preemergence; conditions: Amaranthus retroflexus, pre-emergence, 240 h; for pest or weed control at 125 g/ha: 125 g ai/ha, Preemergence, visual injury rating after approximately 10 d, read-out: Pigweed plant response rating (0 to 100 scale, 0 is no effect, 100 is complete control); for pest or weed control at 500 g/ha: 500 g ai/ha, preemergence, visual injury rating about 10 d after treatment, 0 to 100 scale (0 no effect, 100 complete control), read-out: Pigweed plant response rating
[5] = tested on: ragweed (common ragweed, Ambrosia elatior); assay: Test A preemergence; conditions: Ambrosia artemisiifolia, pre-emergence, 240 h; for pest or weed control at 125 g/ha: 125 g ai/ha, Preemergence, visual injury rating after approximately 10 d, read-out: Ragweed plant response rating (0 to 100 scale, 0 is no effect, 100 is complete control); for pest or weed control at 500 g/ha: 500 g ai/ha, preemergence, visual injury rating about 10 d after treatment, 0 to 100 scale (0 no effect, 100 complete control), read-out: Ragweed plant response rating
How it was run: as §1

[6] = tested on: ryegrass, Italian (Italian ryegrass, Lolium multiflorum); assay: Test A preemergence; conditions: Lolium multiflorum, pre-emergence, 240 h; for pest or weed control at 125 g/ha: 125 g ai/ha, Preemergence, visual injury rating after approximately 10 d, read-out: Ryegrass, Italian plant response rating (0 to 100 scale, 0 is no effect, 100 is complete control); for pest or weed control at 500 g/ha: 500 g ai/ha, preemergence, visual injury rating about 10 d after treatment, 0 to 100 scale (0 no effect, 100 complete control), read-out: Ryegrass, Italian plant response rating
How it was run: as §1

[7] = tested on: Galium (catchweed bedstraw, Galium aparine); assay: Test A postemergence; conditions: Galium, post-emergence, 240 h, read-out: Plant response rating, Galium; for pest or weed control at 125 g/ha: 125 g ai/ha, Postemergence, visual injury after approximately 10 d, 0 to 100 scale where 0 is no effect and 100 is complete control; for pest or weed control at 500 g/ha: 500 g ai/ha, postemergence, visual injury, 0 to 100 scale (0 no effect, 100 complete control), approx. 10 d
How it was run: as §1

Kochia (Kochia scoparia) [8] = assay: Test A postemergence; conditions: Bassia scoparia, post-emergence, 240 h, read-out: Plant response rating, Kochia; for pest or weed control at 125 g/ha: 125 g ai/ha, Postemergence, visual injury after approximately 10 d, 0 to 100 scale where 0 is no effect and 100 is complete control; for pest or weed control at 500 g/ha: 500 g ai/ha, postemergence, visual injury, 0 to 100 scale (0 no effect, 100 complete control), approx. 10 d
How it was run: as §1

[9] = tested on: barnyardgrass (Echinochloa crus-galli); assay: Test A postemergence; conditions: Echinochloa crus-galli, post-emergence, 240 h, read-out: Plant response rating, Barnyardgrass; for pest or weed control at 125 g/ha: 125 g ai/ha, Postemergence, visual injury after approximately 10 d, 0 to 100 scale where 0 is no effect and 100 is complete control; for pest or weed control at 500 g/ha: 500 g ai/ha, postemergence, visual injury, 0 to 100 scale (0 no effect, 100 complete control), approx. 10 d
How it was run: as §1

[10] = tested on: blackgrass (Alopecurus myosuroides); assay: Test A postemergence; conditions: Alopecurus myosuroides, post-emergence, 240 h, read-out: Plant response rating, Blackgrass; for pest or weed control at 125 g/ha: 125 g ai/ha, Postemergence, visual injury after approximately 10 d, 0 to 100 scale where 0 is no effect and 100 is complete control; for pest or weed control at 500 g/ha: 500 g ai/ha, postemergence, visual injury, 0 to 100 scale (0 no effect, 100 complete control), approx. 10 d
How it was run: as §1

corn (Zea mays) = assay: Test A postemergence; conditions: Zea mays, post-emergence, 240 h; for Corn plant response rating (crop injury, 0 = no effect, 100 = complete kill) at 125 g/ha: 125 g ai/ha, Postemergence, visual injury after approximately 10 d, 0 to 100 scale where 0 is no effect and 100 is complete control; for Corn plant response rating (crop injury, 0 = no effect, 100 = complete kill) at 500 g/ha: 500 g ai/ha, postemergence, visual injury, 0 to 100 scale (0 no effect, 100 complete control), approx. 10 d
How it was run: as §1

[11] = tested on: giant foxtail (Setaria faberii); assay: Test A postemergence; conditions: Setaria faberi, post-emergence, 240 h, read-out: Plant response rating, Foxtail, Giant; for pest or weed control at 125 g/ha: 125 g ai/ha, Postemergence, visual injury after approximately 10 d, 0 to 100 scale where 0 is no effect and 100 is complete control; for pest or weed control at 500 g/ha: 500 g ai/ha, postemergence, visual injury, 0 to 100 scale (0 no effect, 100 complete control), approx. 10 d
How it was run: as §1

[12] = tested on: pigweed (Amaranthus retroflexus); assay: Test A postemergence; conditions: Amaranthus retroflexus, post-emergence, 240 h, read-out: Plant response rating, Pigweed; for pest or weed control at 125 g/ha: 125 g ai/ha, Postemergence, visual injury after approximately 10 d, 0 to 100 scale where 0 is no effect and 100 is complete control; for pest or weed control at 500 g/ha: 500 g ai/ha, postemergence, visual injury, 0 to 100 scale (0 no effect, 100 complete control), approx. 10 d
How it was run: as §1

[13] = tested on: ragweed (common ragweed, Ambrosia elatior); assay: Test A postemergence; conditions: Ambrosia artemisiifolia, post-emergence, 240 h, read-out: Plant response rating, Ragweed; for pest or weed control at 125 g/ha: 125 g ai/ha, Postemergence, visual injury after approximately 10 d, 0 to 100 scale where 0 is no effect and 100 is complete control; for pest or weed control at 500 g/ha: 500 g ai/ha, postemergence, visual injury, 0 to 100 scale (0 no effect, 100 complete control), approx. 10 d
How it was run: as §1

[14] = tested on: ryegrass, Italian (Italian ryegrass, Lolium multiflorum); assay: Test A postemergence; conditions: Lolium multiflorum, post-emergence, 240 h, read-out: Plant response rating, Ryegrass, Italian; for pest or weed control at 125 g/ha: 125 g ai/ha, Postemergence, visual injury after approximately 10 d, 0 to 100 scale where 0 is no effect and 100 is complete control; for pest or weed control at 500 g/ha: 500 g ai/ha, postemergence, visual injury, 0 to 100 scale (0 no effect, 100 complete control), approx. 10 d
How it was run: as §1

[15] = tested on: wheat (Triticum aestivum); assay: Test A postemergence; conditions: Triticum aestivum, post-emergence, 240 h, read-out: Plant response rating, Wheat; for plant injury at 125 g/ha: 125 g ai/ha, Postemergence, visual injury after approximately 10 d, 0 to 100 scale where 0 is no effect and 100 is complete control; for plant injury at 500 g/ha: 500 g ai/ha, postemergence, visual injury, 0 to 100 scale (0 no effect, 100 complete control), approx. 10 d
How it was run: as §1

[16] = tested on: barnyardgrass (Echinochloa crus-galli); assay: Test B flooded paddy test; conditions: Echinochloa crus-galli, 250 g ai/ha, Flood; 0 to 100 scale where 0 is no effect and 100 is complete control; read-out: Barnyardgrass plant response rating
How it was run: (§2)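 Percent control, visually estimated after 13–15 d in the greenhouse on a 0–100 basis, compares treated pots with untreated ones; compound was put into paddy water 3 cm above the soil when plants had two leaves.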

[17] = tested on: ducksalad (Heteranthera limosa); assay: Test B flooded paddy test; conditions: Heteranthera limosa, 250 g ai/ha, Flood; 0 to 100 scale where 0 is no effect and 100 is complete control; read-out: Ducksalad plant response rating
How it was run: as §2

rice (Oryra sativa) = assay: Test B flooded paddy test; conditions: Oryza sativa, 250 g ai/ha, Flood; 0 to 100 scale where 0 is no effect and 100 is complete control; read-out: Rice plant response rating
How it was run: as §2

[18] = tested on: sedge, umbrella (small-flower umbrella sedge, Cyperus difformis); assay: Test B flooded paddy test; conditions: Cyperus difformis, 250 g ai/ha, Flood; 0 to 100 scale where 0 is no effect and 100 is complete control; read-out: Sedge, Umbrella plant response rating
How it was run: as §2

| Structure (SMILES) | pest or weed control at 125 g/ha (Kochia (Kochia scoparia) [1]) [%] | pest or weed control at 500 g/ha (Kochia (Kochia scoparia) [1]) [%] | pest or weed control at 125 g/ha [2] [%] | pest or weed control at 500 g/ha [2] [%] | pest or weed control at 125 g/ha [3] [%] | pest or weed control at 500 g/ha [3] [%] | pest or weed control at 125 g/ha [4] [%] | pest or weed control at 500 g/ha [4] [%] | pest or weed control at 125 g/ha [5] [%] | pest or weed control at 500 g/ha [5] [%] | pest or weed control at 125 g/ha [6] [%] | pest or weed control at 500 g/ha [6] [%] | pest or weed control at 125 g/ha [7] [%] | pest or weed control at 500 g/ha [7] [%] | pest or weed control at 125 g/ha (Kochia (Kochia scoparia) [8]) [%] | pest or weed control at 500 g/ha (Kochia (Kochia scoparia) [8]) [%] | pest or weed control at 125 g/ha [9] [%] | pest or weed control at 500 g/ha [9] [%] | pest or weed control at 125 g/ha [10] [%] | pest or weed control at 500 g/ha [10] [%] | other results |
| --- | --- | --- | --- | --- | --- | --- | --- | --- | --- | --- | --- | --- | --- | --- | --- | --- | --- | --- | --- | --- | --- |
| Cc1cc([C@H]2CN(C)C(=O)[C@@H]2C(=O)Nc2ccccc2F)cc(C)c1Br [Compound 1023] | 0 | 0 | 90 | 90 | 90 | 90 | 30 | 30 | 0 | 40 | 50 | 70 | 60 | 60 | 50 | 50 | 90 | 90 | 0 | 20 | Corn plant response rating (crop injury, 0 = no effect, 100 = complete kill) at 125 g/ha (corn (Zea mays)): 0%; Corn plant response rating (crop injury, 0 = no effect, 100 = complete kill) at 500 g/ha (corn (Zea mays)): 50%; pest or weed control at 125 g/ha [11]: 70%; pest or weed control at 500 g/ha [11]: 90%; pest or weed control at 125 g/ha [12]: 0%; pest or weed control at 500 g/ha [12]: 30%; pest or weed control at 125 g/ha [13]: 0%; pest or weed control at 500 g/ha [13]: 0%; pest or weed control at 125 g/ha [14]: 30%; pest or weed control at 500 g/ha [14]: 30%; plant injury at 125 g/ha [15]: 0%; plant injury at 500 g/ha [15]: 20%; pest or weed control at 250 g/ha [16]: 40%; pest or weed control at 250 g/ha [17]: 65%; pest or weed control at 250 g/ha (rice (Oryra sativa)): 20%; pest or weed control at 250 g/ha [18]: 0% |
| CSc1ccccc1NC(=O)[C@H]1C(=O)N(C)C[C@@H]1c1cc(C)c(Br)c(C)c1 [Compound 1025] | 0 | 20 | 70 | 70 | 90 | 90 | 0 | 50 | 0 | 0 | 0 | 30 | 30 | 30 | 30 | 50 | 60 | 70 | 0 | 0 | Corn plant response rating (crop injury, 0 = no effect, 100 = complete kill) at 125 g/ha (corn (Zea mays)): 0%; Corn plant response rating (crop injury, 0 = no effect, 100 = complete kill) at 500 g/ha (corn (Zea mays)): 20%; pest or weed control at 125 g/ha [11]: 60%; pest or weed control at 500 g/ha [11]: 60%; pest or weed control at 125 g/ha [12]: 0%; pest or weed control at 500 g/ha [12]: 30%; pest or weed control at 125 g/ha [13]: 0%; pest or weed control at 500 g/ha [13]: 0%; pest or weed control at 125 g/ha [14]: 0%; pest or weed control at 500 g/ha [14]: 30%; plant injury at 125 g/ha [15]: 0%; plant injury at 500 g/ha [15]: 0%; pest or weed control at 250 g/ha [16]: 0%; pest or weed control at 250 g/ha [17]: 0%; pest or weed control at 250 g/ha (rice (Oryra sativa)): 0%; pest or weed control at 250 g/ha [18]: 0% |
